Laboratory results from ChEMBL document CHEMBL4813981, “Synthesis and in vitro antibacterial activity of new aminothiazole-oximepiperidone cephalosporins” (2021).
In brackets after ≈: the same amount, converted by molar mass.

Key:
Type in all cases: functional
Acinetobacter baumannii [1] = test: Antibacterial activity against Carbapenem- resistant Acinetobacter baumannii 17-5 assessed as reduction in bacterial growth
Acinetobacter baumannii [2] = test: Antibacterial activity against Carbapenem- resistant Acinetobacter baumannii 17-2 assessed as reduction in bacterial growth
Pseudomonas aeruginosa [3] = test: Antibacterial activity against Pseudomonas aeruginosa ATCC 27853 assessed as reduction in bacterial growth
Klebsiella pneumoniae [4] = test: Antibacterial activity against Carbapenem- sensitive Klebsiella pneumoniae 17-12 overexpressing extended spectrum beta-lactamases assessed as reduction in bacterial growth
Klebsiella pneumoniae [5] = test: Antibacterial activity against Carbapenem- sensitive Klebsiella pneumoniae 17-7 overexpressing extended spectrum beta-lactamases assessed as reduction in bacterial growth
Klebsiella pneumoniae [6] = test: Antibacterial activity against Carbapenem- sensitive Klebsiella pneumoniae 17-3 overexpressing extended spectrum beta-lactamases assessed as reduction in bacterial growth
Escherichia coli [7] = test: Antibacterial activity against ESBLs positive Carbapenem-sensitive Escherichia coli 17-14 assessed as reduction in bacterial growth
Klebsiella pneumoniae [8] = test: Antibacterial activity against Carbapenem- sensitive Klebsiella pneumoniae 17-10 overexpressing extended spectrum beta-lactamases assessed as reduction in bacterial growth
Acinetobacter baumannii [9] = test: Antibacterial activity against Carbapenem- resistant Acinetobacter baumannii 17-6 assessed as reduction in bacterial growth
Klebsiella aerogenes [10] = test: Antibacterial activity against Enterobacter aerogenes 17-4 assessed as reduction in bacterial growth
Klebsiella pneumoniae [11] = test: Antibacterial activity against ESBLs negative Carbapenem-sensitive Klebsiella pneumoniae 17-16 assessed as reduction in bacterial growth
Escherichia coli [12] = test: Antibacterial activity against ESBLs positive Carbapenem-sensitive Escherichia coli 17-11 assessed as reduction in bacterial growth
Pseudomonas aeruginosa [13] = test: Antibacterial activity against Carbapenem- sensitive Pseudomonas aeruginosa 17-24 assessed as reduction in bacterial growth
Klebsiella pneumoniae [14] = test: Antibacterial activity against Carbapenem- sensitive Klebsiella pneumoniae 17-8 overexpressing extended spectrum beta-lactamases assessed as reduction in bacterial growth
Enterobacter cloacae [15] = test: Antibacterial activity against Enterobacter cloacae 17-4 assessed as reduction in bacterial growth
Pseudomonas aeruginosa [16] = test: Antibacterial activity against Carbapenem- sensitive Pseudomonas aeruginosa 17-26 assessed as reduction in bacterial growth
Klebsiella pneumoniae [17] = test: Antibacterial activity against Carbapenem- sensitive Klebsiella pneumoniae 17-15 overexpressing extended spectrum beta-lactamases assessed as reduction in bacterial growth
Klebsiella pneumoniae [18] = test: Antibacterial activity against Carbapenem- sensitive Klebsiella pneumoniae 17-2 overexpressing extended spectrum beta-lactamases assessed as reduction in bacterial growth
Klebsiella aerogenes [19] = test: Antibacterial activity against Enterobacter aerogenes 17-3 assessed as reduction in bacterial growth
Klebsiella pneumoniae [20] = test: Antibacterial activity against Carbapenem- resistant Klebsiella pneumoniae KR 15-9 assessed as reduction in bacterial growth
Klebsiella pneumoniae [21] = test: Antibacterial activity against Carbapenem- resistant Klebsiella pneumoniae KR 15-5 assessed as reduction in bacterial growth
Klebsiella pneumoniae [22] = test: Antibacterial activity against Carbapenem- sensitive Klebsiella pneumoniae 17-13 overexpressing extended spectrum beta-lactamases assessed as reduction in bacterial growth
Pseudomonas aeruginosa [23] = test: Antibacterial activity against Carbapenem- resistant Pseudomonas aeruginosa 17-8 assessed as reduction in bacterial growth
Klebsiella pneumoniae [24] = test: Antibacterial activity against Klebsiella pneumoniae ATCC BAA-1705 assessed as reduction in bacterial growth
Escherichia coli [25] = test: Antibacterial activity against ESBLs negative Carbapenem-sensitive Escherichia coli 17-1 assessed as reduction in bacterial growth
Pseudomonas aeruginosa [26] = test: Antibacterial activity against Carbapenem- resistant Pseudomonas aeruginosa 17-5 assessed as reduction in bacterial growth
Escherichia coli [27] = test: Antibacterial activity against ESBLs positive Carbapenem-sensitive Escherichia coli 17-12 assessed as reduction in bacterial growth
Klebsiella pneumoniae [28] = test: Antibacterial activity against Carbapenem- resistant Klebsiella pneumoniae KR 15-6 assessed as reduction in bacterial growth
Escherichia coli [29] = test: Antibacterial activity against ESBLs positive Carbapenem-sensitive Escherichia coli 17-15 assessed as reduction in bacterial growth
Klebsiella pneumoniae [30] = test: Antibacterial activity against Carbapenem- sensitive Klebsiella pneumoniae 17-4 overexpressing extended spectrum beta-lactamases assessed as reduction in bacterial growth
Acinetobacter baumannii [31] = test: Antibacterial activity against Carbapenem- resistant Acinetobacter baumannii 17-10 assessed as reduction in bacterial growth
Klebsiella pneumoniae [32] = test: Antibacterial activity against Carbapenem- resistant Klebsiella pneumoniae KR 15-11 assessed as reduction in bacterial growth
Escherichia coli [33] = test: Antibacterial activity against ESBLs negative Carbapenem-sensitive Escherichia coli 17-9 assessed as reduction in bacterial growth
Klebsiella aerogenes [34] = test: Antibacterial activity against Enterobacter aerogenes 15-5 assessed as reduction in bacterial growth
Escherichia coli [35] = test: Antibacterial activity against ESBLs positive Carbapenem-sensitive Escherichia coli 17-8 assessed as reduction in bacterial growth
Klebsiella pneumoniae [36] = test: Antibacterial activity against ESBLs negative Carbapenem-sensitive Klebsiella pneumoniae 17-17 assessed as reduction in bacterial growth
Klebsiella aerogenes [37] = test: Antibacterial activity against Enterobacter aerogenes 17-1 assessed as reduction in bacterial growth
Acinetobacter baumannii [38] = test: Antibacterial activity against Carbapenem- resistant Acinetobacter baumannii 17-9 assessed as reduction in bacterial growth
Pseudomonas aeruginosa [39] = test: Antibacterial activity against Carbapenem- resistant Pseudomonas aeruginosa 17-1 assessed as reduction in bacterial growth
Pseudomonas aeruginosa [40] = test: Antibacterial activity against Carbapenem- sensitive Pseudomonas aeruginosa 17-21 assessed as reduction in bacterial growth
Enterobacter cloacae [41] = test: Antibacterial activity against Enterobacter cloacae 17-1 assessed as reduction in bacterial growth
Acinetobacter baumannii [42] = test: Antibacterial activity against Acinetobacter baumannii NCTC 13304 assessed as reduction in bacterial growth
Acinetobacter baumannii [43] = test: Antibacterial activity against Carbapenem- resistant Acinetobacter baumannii 17-3 assessed as reduction in bacterial growth
Klebsiella pneumoniae [44] = test: Antibacterial activity against Carbapenem- resistant Klebsiella pneumoniae KR 15-13 assessed as reduction in bacterial growth
Enterobacter cloacae [45] = test: Antibacterial activity against Enterobacter cloacae 17-9 assessed as reduction in bacterial growth
Escherichia coli [46] = test: Antibacterial activity against ESBLs negative Carbapenem-sensitive Escherichia coli 17-16 assessed as reduction in bacterial growth
Enterobacter cloacae [47] = test: Antibacterial activity against Enterobacter cloacae 17-2 assessed as reduction in bacterial growth
Pseudomonas aeruginosa [48] = test: Antibacterial activity against Carbapenem- sensitive Pseudomonas aeruginosa 17-29 assessed as reduction in bacterial growth
Acinetobacter baumannii [49] = test: Antibacterial activity against Carbapenem- resistant Acinetobacter baumannii 17-13 assessed as reduction in bacterial growth
Escherichia coli [50] = test: Antibacterial activity against ESBLs positive Carbapenem-sensitive Escherichia coli 17-22 assessed as reduction in bacterial growth
Klebsiella pneumoniae [51] = test: Antibacterial activity against Carbapenem- sensitive Klebsiella pneumoniae 17-1 overexpressing extended spectrum beta-lactamases assessed as reduction in bacterial growth
Klebsiella aerogenes [52] = test: Antibacterial activity against Enterobacter aerogenes 17-5 assessed as reduction in bacterial growth
Klebsiella pneumoniae [53] = test: Antibacterial activity against Carbapenem- resistant Klebsiella pneumoniae KR 15-7 assessed as reduction in bacterial growth
Klebsiella pneumoniae [54] = test: Antibacterial activity against ESBLs negative Carbapenem-sensitive Klebsiella pneumoniae 17-20 assessed as reduction in bacterial growth

C[C@@H](O)[C@H]1C(=O)N2C(C(=O)O)=C(S[C@@H]3CN[C@H](C(=O)N(C)C)C3)[C@H](C)[C@H]12 [MEROPENEM]
MIC (Acinetobacter baumannii [1]): 64 µg/mL (≈ 167 µM)
MIC (Acinetobacter baumannii [2]): 64 µg/mL (≈ 167 µM)
MIC (Pseudomonas aeruginosa [3]): 1 µg/mL (≈ 2.61 µM)
MIC (Klebsiella pneumoniae [4]): < 0.03 µg/mL
MIC (Klebsiella pneumoniae [5]): 0.06 µg/mL (≈ 0.156 µM)
MIC (Klebsiella pneumoniae [6]): < 0.03 µg/mL
MIC (Escherichia coli [7]): < 0.03 µg/mL
MIC (Klebsiella pneumoniae [8]): < 0.03 µg/mL
MIC (Acinetobacter baumannii [9]): 32 µg/mL (≈ 83.4 µM)
MIC (Klebsiella aerogenes [10]): 0.125 µg/mL (≈ 0.326 µM)
MIC (Klebsiella pneumoniae [11]): < 0.03 µg/mL
MIC (Escherichia coli [12]): < 0.03 µg/mL
MIC (Pseudomonas aeruginosa [13]): 2 µg/mL (≈ 5.22 µM)
MIC (Klebsiella pneumoniae [14]): 0.125 µg/mL (≈ 0.326 µM)
MIC (Enterobacter cloacae [15]): < 0.03 µg/mL
MIC (Pseudomonas aeruginosa [16]): 1 µg/mL (≈ 2.61 µM)
MIC (Klebsiella pneumoniae [17]): < 0.03 µg/mL
MIC (Klebsiella pneumoniae [18]): < 0.03 µg/mL
MIC (Klebsiella aerogenes [19]): < 0.03 µg/mL
MIC (Klebsiella pneumoniae [20]): > 64 µg/mL
MIC (Klebsiella pneumoniae [21]): > 64 µg/mL
MIC (Klebsiella pneumoniae [22]): < 0.03 µg/mL
MIC (Pseudomonas aeruginosa [23]): 32 µg/mL (≈ 83.4 µM)
MIC (Klebsiella pneumoniae [24]): 32 µg/mL (≈ 83.4 µM)
MIC (Escherichia coli [25]): < 0.03 µg/mL
MIC (Pseudomonas aeruginosa [26]): 32 µg/mL (≈ 83.4 µM)
MIC (Escherichia coli [27]): < 0.03 µg/mL
MIC (Klebsiella pneumoniae [28]): > 64 µg/mL
MIC (Escherichia coli [29]): < 0.03 µg/mL
MIC (Klebsiella pneumoniae [30]): 0.06 µg/mL (≈ 0.156 µM)
MIC (Acinetobacter baumannii [31]): 16 µg/mL (≈ 41.7 µM)
MIC (Klebsiella pneumoniae [32]): 32 µg/mL (≈ 83.4 µM)
MIC (Escherichia coli [33]): < 0.03 µg/mL
MIC (Klebsiella aerogenes [34]): 0.125 µg/mL (≈ 0.326 µM)
MIC (Escherichia coli [35]): < 0.03 µg/mL
MIC (Klebsiella pneumoniae [36]): < 0.03 µg/mL
MIC (Klebsiella aerogenes [37]): 0.125 µg/mL (≈ 0.326 µM)
MIC (Acinetobacter baumannii [38]): 32 µg/mL (≈ 83.4 µM)
MIC (Pseudomonas aeruginosa [39]): 16 µg/mL (≈ 41.7 µM)
MIC (Pseudomonas aeruginosa [40]): 2 µg/mL (≈ 5.22 µM)
MIC (Enterobacter cloacae [41]): < 0.03 µg/mL
MIC (Acinetobacter baumannii [42]): 16 µg/mL (≈ 41.7 µM)
MIC (Acinetobacter baumannii [43]): 16 µg/mL (≈ 41.7 µM)
MIC (Klebsiella pneumoniae [44]): 64 µg/mL (≈ 167 µM)
MIC (Enterobacter cloacae [45]): < 0.03 µg/mL
MIC (Escherichia coli [46]): < 0.03 µg/mL
MIC (Enterobacter cloacae [47]): 0.125 µg/mL (≈ 0.326 µM)
MIC (Pseudomonas aeruginosa [48]): 1 µg/mL (≈ 2.61 µM)
MIC (Acinetobacter baumannii [49]): 64 µg/mL (≈ 167 µM)
MIC (Escherichia coli [50]): 0.06 µg/mL (≈ 0.156 µM)
MIC (Klebsiella pneumoniae [51]): 0.06 µg/mL (≈ 0.156 µM)
MIC (Klebsiella aerogenes [52]): 0.125 µg/mL (≈ 0.326 µM)
MIC (Klebsiella pneumoniae [53]): > 64 µg/mL
MIC (Klebsiella pneumoniae [54]): < 0.03 µg/mL
